The test system of one data set is porcine blood cells. As to the kind of experiment: Hemolysis of porcine blood cells.
Data set [1] concerns pre-germinated conidia of A. flavus. To be noted: read-out: IC50 against A. flavus; in vitro; pre-germinated conidia of A. flavus 70-GFP treated 60 min with 0-25 μM peptide; colonies counted after 24 h at 30° C.
Data set [2] concerns maize (Zea mays L. Hi-II). As to the kind of experiment: Phenotype of transgenic maize plants expressing AGM182. Particulars: transgenic maize plants vs. isogenic negative or non-transformed control.

Entries after “also recorded” stand apart in the source; their conditions may differ. Bridge positions count the residues as written; N and C are the ends. Peptide text beside a SMILES is read from it.

On to `CC[C@H](C)[C@H](NC(=O)[C@@H]1CSSC[C@H](NC(=O)[C@H](CC(C)C)NC(=O)[C@H](CCCNC(=N)N)NC(=O)[C@H](C)NC(=O)[C@H](CCCCN)NC(=O)[C@@H](NC(=O)[C@@H](N)CCCCN)[C@@H](C)CC)C(=O)N[C@@H](CC(C)C)C(=O)NCC(=O)N[C@@H](CCCCN)C(=O)N[C@@H](Cc2ccccc2)C(=O)N1)C(=O)N[C@@H](CCCCN)C(=O)N[C@@H](C)C(=O)N[C@@H](CCCNC(=N)N)C(=O)N[C@@H](CC(C)C)C(=O)N[C@@H](CCCCN)C(=O)O` [AGM182] (H-KIKARLCLGKFCIKARLK-OH; disulfide 7-12), for which the “hemolysis of porcine blood cells” value with porcine blood cells (all concentrations of AGM182) is “No hemolysis; also recorded: absence of hemolytic activity”. Moreover, the 50% inhibitory concentration (IC50) in data set [1] worked out at 2.5 µM. In data set [2], the “effect of transgenic expression on plant phenotype and seed weight” value was “did not exhibit any overt phenotype; also recorded: did not have any negative effect on plant phenotype and seed weight”.

`CC[C@H](C)[C@@H]1NC(=O)CNC(=O)[C@H](CCCNC(=N)N)NC(=O)[C@H](Cc2ccc(O)cc2)NC(=O)[C@@H]2CSSC[C@H](NC1=O)C(=O)N[C@@H](Cc1ccc(O)cc1)C(=O)N[C@@H](CCCNC(=N)N)C(=O)N[C@@H](CCCNC(=N)N)C(=O)N[C@H](C(=O)N[C@@H](CCCNC(=N)N)C(N)=O)CSSC[C@H](NC(=O)[C@H](Cc1c[nH]c3ccccc13)NC(=O)[C@@H](N)CCCCN)C(=O)N[C@@H](Cc1ccccc1)C(=O)N[C@@H](CCCNC(=N)N)C(=O)N[C@@H](C(C)C)C(=O)N2` [tachyplesin1, reference compound] (H-KWCFRVCYRGICYRRCR-NH2; disulfide 3-16, 7-12): in data set [1], the 50% inhibitory concentration (IC50) is 12.5 µM. For the compound Triton-X [reference compound], the “hemolysis of porcine blood cells” value in the data set on porcine blood cells (0.1% Triton-X, positive control) is 100%.
